From PubChem BioAssay (NCI)
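Tested at 5 concentrations; 48 h exposure; 96-well plates; endpoints linearly interpolated, else capped at highest concentration. TGI: total growth inhibition.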

Legend:
Assay in all cases: inhibition of tumour cell growth, NCI panel, 48 h
A498 renal = test system: A498 renal
ACHN renal = test system: ACHN renal
M19-MEL melanoma = test system: M19-MEL melanoma
SF-295 CNS = test system: SF-295 CNS
SNB-75 CNS = test system: SNB-75 CNS
SK-MEL-28 melanoma = test system: SK-MEL-28 melanoma
LXFL 529 NSCLC = test system: LXFL 529 NSCLC
SNB-19 CNS = test system: SNB-19 CNS
786-0 renal = test system: 786-0 renal
RXF-631 renal = test system: RXF-631 renal
DLD-1 colon = test system: DLD-1 colon
CAKI-1 renal = test system: CAKI-1 renal
LOX IMVI melanoma = test system: LOX IMVI melanoma
NCI-H460 lung = test system: NCI-H460 lung
RPMI-8226 leukemia = test system: RPMI-8226 leukemia
NCI-H522 lung = test system: NCI-H522 lung
HOP-92 NSCLC = test system: HOP-92 NSCLC
DMS 273 small cell lung = test system: DMS 273 small cell lung
MOLT-4 leukemia = test system: MOLT-4 leukemia
MALME-3M melanoma = test system: MALME-3M melanoma
HCT-116 colon = test system: HCT-116 colon
HCT-15 colon = test system: HCT-15 colon
RXF 393 renal = test system: RXF 393 renal
UO-31 renal = test system: UO-31 renal
HL-60(TB) leukemia = test system: HL-60(TB) leukemia
SN12C renal = test system: SN12C renal
HOP-62 NSCLC = test system: HOP-62 NSCLC
K-562 leukemia = test system: K-562 leukemia
NCI-H23 lung = test system: NCI-H23 lung
SK-MEL-2 melanoma = test system: SK-MEL-2 melanoma
OVCAR-3 ovarian = test system: OVCAR-3 ovarian
TK-10 renal = test system: TK-10 renal
XF 498 CNS = test system: XF 498 CNS
SW-620 colon = test system: SW-620 colon
OVCAR-4 ovarian = test system: OVCAR-4 ovarian
SF-539 CNS = test system: SF-539 CNS
CCRF-CEM leukemia = test system: CCRF-CEM leukemia
HT29 colon = test system: HT29 colon
OVCAR-5 ovarian = test system: OVCAR-5 ovarian
UACC-62 melanoma = test system: UACC-62 melanoma
M14 melanoma = test system: M14 melanoma
SF-268 CNS = test system: SF-268 CNS
SK-MEL-5 melanoma = test system: SK-MEL-5 melanoma
SNB-78 CNS = test system: SNB-78 CNS
DMS 114 small cell lung = test system: DMS 114 small cell lung
NCI-H226 lung = test system: NCI-H226 lung
KM20L2 colon = test system: KM20L2 colon
OVCAR-8 ovarian = test system: OVCAR-8 ovarian
COLO 205 colon = test system: COLO 205 colon
IGROV1 ovarian = test system: IGROV1 ovarian
A549 NSCLC = test system: A549 NSCLC
UACC-257 melanoma = test system: UACC-257 melanoma
SK-OV-3 ovarian = test system: SK-OV-3 ovarian
EKVX NSCLC = test system: EKVX NSCLC
SR leukemia = test system: SR leukemia
U251 CNS = test system: U251 CNS
HOP-18 NSCLC = test system: HOP-18 NSCLC
HCC-2998 colon = test system: HCC-2998 colon
KM12 colon = test system: KM12 colon

Measured: TGI

N#CCc1ccc(/C(C#N)=C2/OC(=N)C(c3ccc(CC#N)cc3)C2=O)cc1 (stereo unspecified)
not listed: SR leukemia | U251 CNS | HOP-18 NSCLC | HCC-2998 colon | KM12 colon
> 100 µM: all other assays above

C#C[C@@]1(O)CCCC2=CC(=O)C[C@]21C
not listed: A498 renal | SNB-75 CNS | RXF-631 renal | CAKI-1 renal | LOX IMVI melanoma | DMS 273 small cell lung | HCT-116 colon | HOP-62 NSCLC | OVCAR-4 ovarian | UACC-62 melanoma | SNB-78 CNS | KM20L2 colon
> 100 µM: all other assays above
